Tests used:
Experiment in all cases: DSF thermal shift, kinase panel
Assay type in all cases: binding
Conditions in all cases: 10 μM compound
RPS6KA6A = biological target: T1, RPS6KA6A (Homo sapiens, UniProt Q9UK32)
T1 construct: purchased in-house (home-made panel, SGC-style construct names)
Method: (§1) The corresponding dianilino-TDZs (1–5) were tested on a panel of 46 protein kinases representing the major kinome branches at a concentration of 10 μM using a Differential Scanning Fluorimetry (DSF). Only analogues 1–3 induced a significant (>2 °C) thermal shift when incubated with a subset of the proteins (Table 1).
(§2) Kinase selectivity assay—A home-made kinase panel was generated for the following enzymes: AAK1, BMP2K, BMX, BRAF, CAMK1D, CAMK1G, CAMKK1, CAMKK2B, CDC42BPA, CDK2, CDKL1, CHEK2, CLK1, CSNK1G1, CSNK1G3, CSNK2A1, DYRK1A, DYRK2A, EPHA2, GAK, GSG2, MAPK1, MAP2K7, MAPK14B, MAPK3, PHKG2, PIM1, PLK1, PKMYT1, PRPF4B, RPS6KA1A, RPS6KA5A, RPS6KA6A, SLK, SRPK1, SRPK2, STK3, STK6, STK10, STK17A, STK24, STK38L, TRIB2, TTK, VRK1 and VRK2. Proteins were produced in E. coli, purified in a Ni-chelate column, followed by overnight digestion using TEV protease (made in house with an N-terminal 6xHis tag) and dialysis to remove imidazole. To clear samples of uncleaved proteins and the TEV protease, samples were loaded on new Ni-chelate columns. The flow through was collected, concentrated and loaded to a HiLoad Superdex 200 16/600 column (GE Healthcare, Chicago, IL, USA) for final polishing and buffer exchange.
(§3) Starting from 100 µM protein stocks, our kinase panel enzymes were diluted to 1 µM in buffer 100 mM K2HPO4 pH 7.5 containing 150 mM NaCl, 10% glycerol and 5X dye (Applied Biosystems catalogue 4461806). The protein/dye mixture was transferred to a 384-well PCR microplate having 20 µL per well. Compounds in DMSO at 10 mM concentration were added in 20 nL volume, using a liquid handling device setup with a pin head, to make 10 µM compound concentration in the assay plate.
(§4) Protein thermal shift data was measured in a qPCR instrument (Applied Biosystems QuantStudio 6) programmed to equilibrate the plate at 25 °C for 5 min followed by ramping the temperature to 95 °C at a rate of 0.05 °C/s. Data was processed using Protein Thermal shift software (Applied Biosystems) by fitting experimental curves to a Boltzmann function to calculate differential thermal shifts (dTm) referenced to protein/dye in 0.2% DMSO.

STK10A = biological target: T2, STK10A (Homo sapiens, UniProt O94804)
T2 construct: TEV-cleavable (cleaved yes); made in house; host or cells: E. coli
Method: as §1, §2, §3, §4

VRK2A = biological target: T3, VRK2A (Homo sapiens, UniProt Q86Y07)
T3 construct: TEV-cleavable (cleaved yes); made in house; host or cells: E. coli
Method: as §1, §2, §3, §4

PLK1A = biological target: T4, PLK1A (Homo sapiens, UniProt P53350)
T4 construct: purchased in-house (home-made panel, SGC-style construct names)
Method: as §1, §2, §3, §4

SLKA = biological target: T5, SLKA (Homo sapiens, UniProt Q9H2G2)
T5 construct: purchased in-house (home-made panel, SGC-style construct names)
Method: as §1, §2, §3, §4

PHKG2A = biological target: T6, PHKG2A (Homo sapiens, UniProt P15735)
T6 construct: purchased in-house (home-made panel, SGC-style construct names)
T6 sequence (P15735 1-406): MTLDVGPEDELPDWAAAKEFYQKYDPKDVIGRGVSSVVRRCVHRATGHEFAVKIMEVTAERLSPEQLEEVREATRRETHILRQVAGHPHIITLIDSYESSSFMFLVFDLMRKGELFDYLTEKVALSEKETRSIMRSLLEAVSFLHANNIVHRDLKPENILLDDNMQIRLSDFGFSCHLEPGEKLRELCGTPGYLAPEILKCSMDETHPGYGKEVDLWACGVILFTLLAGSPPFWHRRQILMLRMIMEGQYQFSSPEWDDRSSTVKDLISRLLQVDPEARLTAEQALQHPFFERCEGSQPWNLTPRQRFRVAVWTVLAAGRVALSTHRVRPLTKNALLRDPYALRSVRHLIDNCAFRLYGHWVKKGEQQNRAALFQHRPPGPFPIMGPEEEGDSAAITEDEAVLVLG
Method: as §1, §2, §3, §4

PIM1A = biological target: T7, PIM1A (Homo sapiens, UniProt P11309)
T7 construct: purchased in-house (home-made panel, SGC-style construct names)
Method: as §1, §2, §3, §4

MAPK14B = biological target: T8, MAPK14B (Homo sapiens, UniProt Q16539)
T8 construct: purchased in-house (home-made panel, SGC-style construct names)
Method: as §1, §2, §3, §4

T4 sequence (P53350 whole entry): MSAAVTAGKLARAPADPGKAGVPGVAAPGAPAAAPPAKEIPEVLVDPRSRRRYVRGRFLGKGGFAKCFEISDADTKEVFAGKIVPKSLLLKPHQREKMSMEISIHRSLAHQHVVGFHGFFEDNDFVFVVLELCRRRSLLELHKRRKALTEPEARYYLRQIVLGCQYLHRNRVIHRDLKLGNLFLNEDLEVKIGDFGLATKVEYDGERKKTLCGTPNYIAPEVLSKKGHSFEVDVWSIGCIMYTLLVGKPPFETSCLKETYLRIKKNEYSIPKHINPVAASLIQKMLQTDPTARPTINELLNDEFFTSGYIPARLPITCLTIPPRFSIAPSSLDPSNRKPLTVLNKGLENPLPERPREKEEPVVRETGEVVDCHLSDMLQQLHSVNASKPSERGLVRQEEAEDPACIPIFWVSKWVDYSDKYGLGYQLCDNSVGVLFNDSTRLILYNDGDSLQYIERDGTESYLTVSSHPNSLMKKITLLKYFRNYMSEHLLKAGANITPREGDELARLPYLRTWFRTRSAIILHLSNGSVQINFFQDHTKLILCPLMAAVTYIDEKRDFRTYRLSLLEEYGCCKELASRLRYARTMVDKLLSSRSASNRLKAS
T7 sequence (P11309 whole entry): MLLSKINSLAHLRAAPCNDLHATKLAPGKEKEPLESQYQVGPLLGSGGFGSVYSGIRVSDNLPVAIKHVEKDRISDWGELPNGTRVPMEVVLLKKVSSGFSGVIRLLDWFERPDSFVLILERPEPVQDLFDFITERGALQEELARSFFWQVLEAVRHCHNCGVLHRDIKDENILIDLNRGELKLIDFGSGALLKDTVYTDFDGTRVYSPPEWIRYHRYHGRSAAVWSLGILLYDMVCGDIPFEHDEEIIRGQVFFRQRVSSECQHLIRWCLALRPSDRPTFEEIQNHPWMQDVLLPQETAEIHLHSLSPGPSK
T1 sequence (Q9UK32 whole entry): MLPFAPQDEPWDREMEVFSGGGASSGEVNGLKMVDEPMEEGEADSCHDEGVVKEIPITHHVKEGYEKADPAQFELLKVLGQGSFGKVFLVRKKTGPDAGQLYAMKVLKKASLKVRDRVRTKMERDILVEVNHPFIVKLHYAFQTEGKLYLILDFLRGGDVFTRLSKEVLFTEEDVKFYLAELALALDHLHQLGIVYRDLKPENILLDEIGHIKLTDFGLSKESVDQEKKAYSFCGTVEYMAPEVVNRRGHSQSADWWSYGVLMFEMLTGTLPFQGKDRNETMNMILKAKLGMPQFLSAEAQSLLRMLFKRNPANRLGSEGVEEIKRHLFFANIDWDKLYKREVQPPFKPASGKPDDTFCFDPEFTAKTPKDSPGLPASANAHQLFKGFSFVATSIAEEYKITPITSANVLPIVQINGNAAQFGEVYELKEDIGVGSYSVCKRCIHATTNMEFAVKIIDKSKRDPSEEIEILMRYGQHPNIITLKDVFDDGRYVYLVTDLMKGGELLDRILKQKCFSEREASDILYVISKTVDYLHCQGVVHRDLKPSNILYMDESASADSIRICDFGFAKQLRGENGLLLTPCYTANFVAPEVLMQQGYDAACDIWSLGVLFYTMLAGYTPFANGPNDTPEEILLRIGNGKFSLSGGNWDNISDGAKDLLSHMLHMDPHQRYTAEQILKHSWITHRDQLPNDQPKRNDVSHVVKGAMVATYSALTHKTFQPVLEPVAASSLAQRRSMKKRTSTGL
T5 sequence (Q9H2G2 whole entry): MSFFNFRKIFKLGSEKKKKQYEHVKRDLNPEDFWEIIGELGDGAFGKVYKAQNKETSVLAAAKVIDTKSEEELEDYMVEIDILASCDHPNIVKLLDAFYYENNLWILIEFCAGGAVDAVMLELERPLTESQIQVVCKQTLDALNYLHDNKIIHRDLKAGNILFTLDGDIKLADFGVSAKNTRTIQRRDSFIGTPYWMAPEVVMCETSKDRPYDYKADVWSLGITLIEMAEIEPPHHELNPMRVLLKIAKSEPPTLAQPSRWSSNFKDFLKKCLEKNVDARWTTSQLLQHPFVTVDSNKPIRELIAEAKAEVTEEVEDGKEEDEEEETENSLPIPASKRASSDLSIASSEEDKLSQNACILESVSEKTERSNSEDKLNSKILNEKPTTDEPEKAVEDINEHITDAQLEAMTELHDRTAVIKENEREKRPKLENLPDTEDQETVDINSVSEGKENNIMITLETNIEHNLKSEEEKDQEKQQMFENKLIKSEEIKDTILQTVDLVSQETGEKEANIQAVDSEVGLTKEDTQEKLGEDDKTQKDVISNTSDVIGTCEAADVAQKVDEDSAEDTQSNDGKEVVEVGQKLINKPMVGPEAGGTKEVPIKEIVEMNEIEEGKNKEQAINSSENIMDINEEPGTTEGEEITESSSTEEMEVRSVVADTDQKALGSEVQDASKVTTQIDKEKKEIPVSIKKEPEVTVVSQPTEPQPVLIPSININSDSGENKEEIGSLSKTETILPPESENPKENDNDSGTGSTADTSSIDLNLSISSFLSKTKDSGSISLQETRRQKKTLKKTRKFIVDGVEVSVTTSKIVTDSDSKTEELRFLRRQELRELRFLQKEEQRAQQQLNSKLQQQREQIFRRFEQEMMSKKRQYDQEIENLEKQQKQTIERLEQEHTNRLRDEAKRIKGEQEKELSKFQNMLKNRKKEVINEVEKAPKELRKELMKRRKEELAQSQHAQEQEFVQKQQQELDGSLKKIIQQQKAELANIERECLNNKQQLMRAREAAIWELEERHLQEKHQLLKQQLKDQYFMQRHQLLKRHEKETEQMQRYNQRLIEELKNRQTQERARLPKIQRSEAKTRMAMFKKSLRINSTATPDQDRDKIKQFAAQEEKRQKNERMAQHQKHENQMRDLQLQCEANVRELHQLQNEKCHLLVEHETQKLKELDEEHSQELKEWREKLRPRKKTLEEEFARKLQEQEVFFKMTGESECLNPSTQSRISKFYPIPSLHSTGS
T3 sequence (Q86Y07 whole entry): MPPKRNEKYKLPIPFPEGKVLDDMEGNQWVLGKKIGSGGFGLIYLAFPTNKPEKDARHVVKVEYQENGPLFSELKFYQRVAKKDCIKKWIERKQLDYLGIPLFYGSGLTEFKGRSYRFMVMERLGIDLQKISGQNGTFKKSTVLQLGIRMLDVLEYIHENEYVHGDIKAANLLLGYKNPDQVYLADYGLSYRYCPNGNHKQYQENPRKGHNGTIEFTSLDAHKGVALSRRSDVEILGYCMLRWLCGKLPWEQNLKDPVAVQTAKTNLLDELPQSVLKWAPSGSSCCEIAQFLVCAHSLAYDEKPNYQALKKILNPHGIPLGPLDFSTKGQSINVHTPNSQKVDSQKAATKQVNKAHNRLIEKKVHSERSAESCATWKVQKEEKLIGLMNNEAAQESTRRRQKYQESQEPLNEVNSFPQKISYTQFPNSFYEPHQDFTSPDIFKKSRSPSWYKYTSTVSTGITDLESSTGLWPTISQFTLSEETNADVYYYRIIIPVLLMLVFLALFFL
T2 sequence (O94804 whole entry): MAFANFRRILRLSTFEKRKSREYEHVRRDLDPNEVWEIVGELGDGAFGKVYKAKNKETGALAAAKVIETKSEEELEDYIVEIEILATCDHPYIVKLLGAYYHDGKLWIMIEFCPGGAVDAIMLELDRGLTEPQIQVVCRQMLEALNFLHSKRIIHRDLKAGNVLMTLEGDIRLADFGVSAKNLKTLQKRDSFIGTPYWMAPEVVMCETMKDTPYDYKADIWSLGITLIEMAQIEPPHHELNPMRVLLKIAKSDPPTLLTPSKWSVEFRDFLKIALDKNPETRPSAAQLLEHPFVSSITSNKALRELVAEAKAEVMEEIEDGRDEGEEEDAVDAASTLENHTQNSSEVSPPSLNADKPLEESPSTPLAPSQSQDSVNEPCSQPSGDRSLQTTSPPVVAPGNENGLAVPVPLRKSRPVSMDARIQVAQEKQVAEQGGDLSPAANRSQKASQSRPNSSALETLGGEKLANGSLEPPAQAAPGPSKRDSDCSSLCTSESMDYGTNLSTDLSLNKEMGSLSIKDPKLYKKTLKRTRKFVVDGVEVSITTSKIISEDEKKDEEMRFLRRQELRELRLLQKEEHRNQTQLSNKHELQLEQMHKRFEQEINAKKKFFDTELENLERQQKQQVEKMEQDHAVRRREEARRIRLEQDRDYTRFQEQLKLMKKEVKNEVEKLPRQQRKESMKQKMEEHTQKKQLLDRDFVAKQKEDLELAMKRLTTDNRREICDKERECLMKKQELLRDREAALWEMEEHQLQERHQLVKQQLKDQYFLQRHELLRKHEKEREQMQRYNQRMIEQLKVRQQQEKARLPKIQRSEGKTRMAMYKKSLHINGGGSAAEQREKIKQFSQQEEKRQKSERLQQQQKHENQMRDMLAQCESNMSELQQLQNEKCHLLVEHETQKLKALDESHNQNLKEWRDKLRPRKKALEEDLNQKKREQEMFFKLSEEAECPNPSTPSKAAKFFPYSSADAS
T8 sequence (Q16539 whole entry): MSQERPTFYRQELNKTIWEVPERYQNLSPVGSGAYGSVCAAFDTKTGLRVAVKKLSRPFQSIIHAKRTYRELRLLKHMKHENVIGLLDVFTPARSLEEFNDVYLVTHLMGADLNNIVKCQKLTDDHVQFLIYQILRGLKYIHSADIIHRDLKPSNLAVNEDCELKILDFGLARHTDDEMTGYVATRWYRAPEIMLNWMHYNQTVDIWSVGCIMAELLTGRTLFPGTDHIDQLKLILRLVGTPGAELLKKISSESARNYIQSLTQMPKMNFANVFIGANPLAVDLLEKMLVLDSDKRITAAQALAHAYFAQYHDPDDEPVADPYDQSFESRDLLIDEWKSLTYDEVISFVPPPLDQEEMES

SMILES | ΔTm at 10 µM (RPS6KA6A) | ΔTm at 10 µM (STK10A) | ΔTm at 10 µM (VRK2A) | ΔTm at 10 µM (PLK1A) | ΔTm at 10 µM (SLKA) | ΔTm at 10 µM (PHKG2A) | ΔTm at 10 µM (PIM1A) | ΔTm at 10 µM (MAPK14B)
Cc1ccc(Nc2nsnc(Nc3cccc(C(N)=O)c3)c2=O)cc1O [Compound 1, 3-({5-[(3-Hydroxy-4-methylphenyl)amino]-4-oxo-4H-1,2,6-thiadiazin-3-yl}amino)benzamide] | 0.5 °C | 0.5 °C | -0.6 °C | 0.3 °C | -0.6 °C | 0.7 °C | 1 °C | 0 °C
Cc1ccc(Nc2nsnc(Nc3ccc(C(N)=O)cc3)c2=O)cc1O [Compound 2, 4-({5-[(3-Hydroxy-4-methylphenyl)amino]-4-oxo-4H-1,2,6-thiadiazin-3-yl}amino)benzamide] | 2.6 °C | 0.9 °C | 1.8 °C | -0.2 °C | -0.1 °C | 2.4 °C | 3.5 °C | 0.6 °C
Cc1ccc(Nc2nsnc(Nc3ccc4c(c3)CS(=O)(=O)C4)c2=O)cc1O [Compound 3, 3-[(2,2-Dioxido-1,3-dihydrobenzo[c]thiophen-5-yl)amino]-5-[(3-hydroxy-4-methylphenyl)amino]-4H-1,2,6-thiadiazin-4-one] | 0.9 °C | 2.2 °C | 0.1 °C | 1.1 °C | -0.2 °C | 1.6 °C | 4.1 °C | 1 °C
CNC(=O)c1ccccc1Nc1nsnc(Nc2cccc(CS(C)(=O)=O)c2)c1=O [Compound 4, N-Methyl-2-([5-({3-[(methylsulfonyl)methyl]phenyl}amino)-4-oxo-4H-1,2,6-thiadiazin-3-yl]-amino}-benzamide] | -0.3 °C | 0.2 °C | -0.3 °C | 0.2 °C | -0.8 °C | 0.2 °C | -0.7 °C | -0.2 °C
CNC(=O)c1ccccc1Nc1nsnc(Nc2ccc(N3CCOCC3)cc2)c1=O [Compound 5, N-Methyl-2-({5-[(4-morpholinophenyl)amino]-4-oxo-4H-1,2,6-thiadiazin-3-yl}amino)benzamide] | -0.6 °C | -0.4 °C | -0.3 °C | 0.2 °C | -0.7 °C | 0.2 °C | -0.2 °C | -0.3 °C

From PMC6019134, “1,2,6-Thiadiazinones as Novel Narrow Spectrum Calcium/Calmodulin-Dependent Protein Kinase Kinase 2 (CaMKK2) Inhibitors” (Molecules : A Journal of Synthetic Chemistry and Natural …, 2018)
